Measurements from patent US8735411B2, “Macrocyclic benzofused pyrimidine derivatives” (AbbVie Inc., priority 2006, dated 2014).

Biological target: histamine H4 receptor (Homo sapiens, UniProt Q9H3N8)
Test: In vitro histamine H4 potency in FLIPR (Ca2+ flux, HEK-293 cells coexpressing Gαqi5)
Type: cell-based
Set-up: expressed in transfected cells
Conditions: Kb for antagonists and inverse agonists, EC50 for partial agonists
Source text: There are many methods available to show the effectiveness of compounds as histamine H4 receptor ligands. Histamine H4 receptors from mammalian species have been cloned. Methods to clone, express, and assess the potency and functional activity of such cloned genes are well known to those skilled in the art of molecular biology. […] Before testing, cells are loaded with a Ca^+2 sensitive fluorescent dye, in this case Fluo-4. In the case of partial agonist or agonist ligands, addition of compound to the cells leads to the increase in intracellular Ca^+2 which is detected by FLIPR (Fluorescence Imaging Plate Reader; Molecular Devices, Sunnyvale, Calif.) technology. […] The fluorescence intensities measured before addition of the test compound are subtracted from the fluorescence intensities at later time points. Peak response values determined at each concentration of ligand are expressed as a percentage of the response obtained with the full agonist histamine. Concentration versus response data are analyzed to obtain compound potency as Kb values for antagonists and inverse agonists and as EC50 values for partial agonists.

Chain of histamine H4 receptor (Q9H3N8 whole entry): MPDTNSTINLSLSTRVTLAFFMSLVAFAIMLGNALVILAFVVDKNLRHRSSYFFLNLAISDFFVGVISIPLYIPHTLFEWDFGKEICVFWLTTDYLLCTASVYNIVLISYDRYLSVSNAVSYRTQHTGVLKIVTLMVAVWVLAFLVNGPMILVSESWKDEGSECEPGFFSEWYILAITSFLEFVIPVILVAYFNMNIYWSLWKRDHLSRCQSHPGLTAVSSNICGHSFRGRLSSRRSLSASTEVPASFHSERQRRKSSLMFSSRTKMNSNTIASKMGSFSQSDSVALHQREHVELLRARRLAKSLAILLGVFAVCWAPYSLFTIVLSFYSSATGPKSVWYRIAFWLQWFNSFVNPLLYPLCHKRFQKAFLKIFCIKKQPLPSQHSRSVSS

| Structure (SMILES) | Potency [nM] |
| --- | --- |
| O=C(Nc1nc2c(c(N3CCNCC3)n1)CCCc1ccccc1-2)c1ccccc1 [Example 84, N-(4-Piperazin-1-yl-6,7-dihydro-5H-benzo[6,7]cyclohepta[1,2-d]pyrimidin-2-yl)-benzamide] | 3388 |
| Nc1nc2c(c(N3CCC4(CCNC4)CC3)n1)CCCc1ccccc1-2 [Example 60, 4-(2,8-diazaspiro[4.5]dec-8-yl)-6,7-dihydro-5H-benzo[6,7]cyclohepta[1,2-d]pyrimidin-2-amine] | 724 |
| CN1CCC(Nc2nc(N)nc3c2CCCc2ccccc2-3)CC1 [Example 65, N^4-(1-methylpiperidin-4-yl)-6,7-dihydro-5H-benzo[6,7]cyclohepta[1,2-d]pyrimidine-2,4-diamine] | 13 |
| Nc1nc2c(c(N3CCC4CC3CN4)n1)CCCc1ccccc1-2 (stereo not drawn) [Example 82, 4-(2,6-Diaza-bicyclo[3.2.1]oct-2-yl)-6,7-dihydro-5H-benzo[6,7]cyclohepta[1,2-d]pyrimidin-2-ylamine] | 2042 |
| Nc1nc2c(c(N3CCCNCCC3)n1)CCCc1ccccc1-2 [Example 61, 4-(1,5-diazocan-1-yl)-6,7-dihydro-5H-benzo[6,7]cyclohepta[2-d]pyrimidin-2-amine] | 8.7 |
| COC(=O)N(C)c1ccc2c(c1)-c1nc(N)nc(N3CCNCC3)c1CCC2 [Example 128, (2-Amino-4-piperazin-1-yl-6,7-dihydro-5H-benzo[6,7]cyclohepta[1,2-d]pyrimidin-10-yl)-methyl-carbamic acid methyl ester] | 562 |
| CC1CCN(c2nc(N)nc3c2CCCc2ccccc2-3)CCN1 (stereo not drawn) [Example 67, 4-(5-methyl-1,4-diazepan-1-yl)-6,7-dihydro-5H-benzo[6,7]cyclohepta[1,2-d]pyrimidin-2-amine] | 69 |
| Nc1nc2c(c(N3CCCNCC3)n1)CCCc1ccccc1-2 [Example 116, 4-[1,4]Diazepan-1-yl-6,7-dihydro-5H-benzo[6,7]cyclohepta[1,2-d]pyrimidin-2-ylamine] | 15 |
| O=C(O)c1nc2c(c(N3CC4CCCNC4C3)n1)CCCc1ccccc1-2 (stereo not drawn) [Example 134, 4-(Octahydro-pyrrolo[3,4-b]pyridin-6-yl)-6,7-dihydro-5H-benzo[6,7]cyclohepta[1,2-d]pyrimidine-2-carboxylic acid] | 11885 |
| Nc1nc2c(c(N3CC[C@H]4CNC[C@H]43)n1)CCCc1ccccc1-2 [Example 119, (3aS,6aS)-4-(Hexahydro-pyrrolo[3,4-b]pyrrol-1-yl)-6,7-dihydro-5H-benzo[6,7]cyclohepta[1,2-d]pyrimidin-2-amine] | 269 |
| Nc1nc2c(c(N3C[C@@H]4C[C@H]3CN4)n1)CCCCCc1ccccc1-2 [Example 28, 4-((1S,4S)-2,5-Diaza-bicyclo[2.2.1]hept-2-yl)-6,7,8,9-tetrahydro-5H-1,3-diaza-dibenzo[a,c]cyclononen-2-ylamine] | 15849 |
| Nc1nc2c(c(N3CC4CCCNC4C3)n1)SCCc1ccccc1-2 (stereo not drawn) [Example 110, 4-(Octahydro-pyrrolo[3,4-b]pyridin-6-yl)-6,7-dihydro-5-thia-1,3-diaza-dibenzo[a,c]cyclohepten-2-ylamine] | 54 |
| CC1Cc2c(nc(N)nc2N2CCNCC2)-c2ccccc21 (stereo not drawn) [Example 4, 6-Methyl-4-piperazin-1-yl-5,6-dihydro-benzo[h]quinazolin-2-ylamine] | 398 |
| NCCC(=O)Nc1nc2c(c(N3CCNCC3)n1)CCCc1ccccc1-2 [Example 93, 3-Amino-N-(4-piperazin-1-yl-6,7-dihydro-5H-benzo[6,7]cyclohepta[1,2-d]pyrimidin-2-yl)-propionamide] | 135 |
| Nc1nc2c(c(N3C[C@H]4CNC[C@H]43)n1)CCCc1ccccc1-2 [Example 117, (1R,5S)-4-(3,6-Diaza-bicyclo[3.2.0]hept-6-yl)-6,7-dihydro-5H-benzo[6,7]cyclohepta[1,2-d]pyrimidin-2-ylamine] | 12 |
| CN[C@@H]1CCN(c2nc(N)nc3c2CCOc2ccc(Cl)cc2-3)C1 [Example 45, 10-chloro-4-[(3R)-3-(methylamino)pyrrolidin-1-yl]-5,6-dihydro[1]benzoxepino[5,4-d]pyrimidin-2-amine] | 69 |
| CNc1ccc2c(c1)-c1nc(N)nc(N3CCNCC3)c1CCC2 [Example 129, 10-N-Methyl-4-piperazin-1-yl-6,7-dihydro-5H-benzo[6,7]cyclohepta[1,2-d]pyrimidine-2,10-diamine] | 1096 |
| Nc1nc2c(c(N3CC(N)C3)n1)CCCCc1ccccc1-2 [Example 57, 4-(3-aminoazetidin-1-yl)-5,6,7,8-tetrahydrobenzo[7,8]cycloocta[1,2-d]pyrimidin-2-amine] | 562 |

| Structure (SMILES) | Potency [nM] |
| --- | --- |
| CN[C@@H]1CCN(c2nc(N)nc3c2CCOc2ccccc2-3)C1 [Example 31, 4-((R)-3-Methylamino-pyrrolidin-1-yl)-5,6-dihydro-7-oxa-1,3-diaza-dibenzo[a,c]cyclohepten-2-ylamine] | 27 |
| CN1CCN(c2nc(N)nc3c2CCCc2ccccc2-3)CC1 [Example 5, 4-(4-Methyl-piperazin-1-yl)-6,7-dihydro-5H-benzo[6,7]cyclohepta[1,2-d]-pyrimidin-2-ylamine] | 9.8 |
| CN(C)CCNc1nc2c(c(N3CCNCC3)n1)CCCc1ccccc1-2 [Example 95, N,N-Dimethyl-N′-(4-piperazin-1-yl-6,7-dihydro-5H-benzo[6,7]cyclohepta[1,2-d]pyrimidin-2-yl)-ethane-1,2-diamine] | 1413 |
| Nc1nc2c(c(N3CCNCC3)n1)CCCCCc1ccccc1-2 [Example 21, 4-Piperazin-1-yl-6,7,8,9-tetrahydro-5H-1,3-diaza-dibenzo[a,c]cyclononen-2-ylamine] | 5623 |
| Nc1nc2c(c(N3CCNCCNCC3)n1)CCCc1ccccc1-2 [Example 94, 4-[1,4,7]Triazonan-1-yl-6,7-dihydro-5H-benzo[6,7]cyclohepta[1,2-d]pyrimidin-2-ylamine] | 9.1 |
| CN[C@@H]1CCN(c2nc(N)nc3c2CCOc2cc(C)ccc2-3)C1 [Example 49, 9-methyl-4-[(3R)-3-(methylamino)pyrrolidin-1-yl]-5,6-dihydro[1]benzoxepino[5,4-d]pyrimidin-2-amine] | 39 |
| CNC1CN(c2nc(N)nc3c2CCCCCc2ccccc2-3)C1 [Example 26, 4-(3-Methylamino-azetidin-1-yl)-6,7,8,9-tetrahydro-5H-1,3-diaza-dibenzo[a,c]cyclononen-2-ylamine] | 115 |
| Nc1nc2c(c(N3CC4CCCNC4C3)n1)CCOc1cc(I)ccc1-2 (stereo not drawn) [Example 102, 9-Iodo-4-octahydro-pyrrolo[3,4-b]pyridin-6-yl-5,6-dihydro-7-oxa-1,3-diaza-dibenzo[a,c]cyclohepten-2-ylamine] | 45 |
| CN1CC2CC(C1)N(c1nc(N)nc3c1CCCc1ccccc1-3)C2 (stereo not drawn) [Example 86, 4-(3-Methyl-3,6-diaza-bicyclo[3.2.1]oct-6-yl)-6,7-dihydro-5H-benzo[6,7]cyclohepta[1,2-d]pyrimidin-2-ylamine] | 891 |
| CN1CCC2CN(c3nc(N)nc4c3CCCc3ccccc3-4)CC2C1 (stereo not drawn) [Example 85, 4-(5-Methyl-octahydro-pyrrolo[3,4-c]pyridin-2-yl)-6,7-dihydro-5H-benzo[6,7]cyclohepta[1,2-d]pyrimidin-2-ylamine] | 85 |
| CN1CC[C@@H]2CN(c3nc(N)nc4c3CCCc3ccccc3-4)C[C@@H]21 [Example 15, 4-((3aR,6aR)-1-Methyl-hexahydro-pyrrolo[3,4-b]pyrrol-5-yl)-6,7-dihydro-5H-benzo[6,7]cyclohepta[1,2-d]pyrimidin-2-ylamine] | 209 |
| CNC1CN(c2nc(N)nc3c2CC[S+]([O-])c2ccccc2-3)C1 (stereo not drawn) [Example 37, 4-(3-Methylamino-azetidin-1-yl)-7-oxo-6,7-dihydro-5H-7λ4-thia-1,3-diaza-dibenzo[a,c]cyclohepten-2-ylamine] | 537 |
| CN[C@@H]1CCN(c2nc(N)nc3c2CCOc2cc(Cl)ccc2-3)C1 [Example 48, 9-chloro-4-[(3R)-3-(methylamino)pyrrolidin-1-yl]-5,6-dihydro[1]benzoxepino[5,4-d]pyrimidin-2-amine] | 43 |
| Nc1nc2c(c(N3CC[C@@H](N)C3)n1)CCSc1ccccc1-2 [Example 35, 4-(3-(R)-Amino-pyrrolidin-1-yl)-5,6-dihydro-7-thia-1,3-diaza-dibenzo[a,c]cyclohepten-2-ylamine] | 891 |
| Nc1nc2c(c(N3CC4CNCC4C3)n1)CCCc1ccccc1-2 (stereo not drawn) [Example 22, 4-(Hexahydro-pyrrolo[3,4-c]pyrrol-2-yl)-6,7-dihydro-5H-benzo[6,7]cyclohepta[1,2-d]pyrimidin-2-ylamine] | 66 |
| Nc1nc2c(c(N3CC4CCCNC4C3)n1)CCCc1ccccc1-2 (stereo not drawn) [Example 59, 4-octahydro-6H-pyrrolo[3,4-b]pyridin-6-yl-6,7-dihydro-5H-benzo[6,7]cyclohepta[1,2-d]pyrimidin-2-amine] | 44 |
| CN[C@@H]1CCN(c2nc(N)nc3c2S(=O)(=O)CCc2ccccc2-3)C1 [Example 111, 4-((R)-3-Methylamino-pyrrolidin-1-yl)-5,5-dioxo-6,7-dihydro-5H-5λ6-thia-1,3-diaza-dibenzo[a,c]cyclohepten-2-ylamine] | 1413 |
| COC(=O)N(C)c1ccc2c(c1)-c1nc(N)nc(N3CC4CCCNC4C3)c1CCC2 (stereo not drawn) [Example 130, (2-Amino-4-octahydro-pyrrolo[3,4-b]pyridin-6-yl-6,7-dihydro-5H-benzo[6,7]cyclohepta[1,2-d]pyrimidin-10-yl)-methyl-carbamic acid methyl ester] | 164 |
